Results on seven compounds are retold here after patent US8193350B2, “Fluorescent compound and labeling agent comprising the same” (Keio University, priority 2006, dated 2012).

A short description of series [1]: Optical properties: absorption and fluorescence emission spectra. It is filed as physicochemical.
The conditions of series [2]: cited from earlier work.
Series [3] is described as follows: Light fastness test: change of absorbance with time under the light of daily life. It is filed as physicochemical. The settings on record: acetonitrile. Here is the method:
An experiment testing the light fastness of fluorescent compound 8 and Cy7 (trade name, 1-[3-(4-monomethoxytrityloxy)propyl]-1′-[3-[(2-cyanoethyl)-(N,N-diisopropyl)phosphoramidityl]propyl]-3,3,3′,3′-tetramethylindotricarbocyanine chloride) was carried out.
Fluorescent compound 8 and Cy7 (trade name) were respectively dissolved in acetonitrile to a concentration attaining an absorbance of 0.1. The solutions were left to stand under the same conditions (more specifically, under the light of daily life without light shading, and the absorbance was measured every day (or every other day). The change with time of the measured absorbance was graphed taking the relative absorbance (taking the absorbance before leaving to stand as 100%) along the ordinate and taking the days along the abscissa.

Where [4] appears, read: CHCl3, reference N,N′-bis(1-hexylheptyl)-perylene dye (Φ=1.00 in CH2Cl2).
Where [5] appears, read: CHCl3, reference 3,3′-diethyl-dithiazylcarbocyanine, excitation 650 nm, containing error of 10%.
Where [6] appears, read: MeOH, reference 3,3′-diethyl-dithiazylcarbocyanine, excitation 650 nm, containing error of 10%.

Where “and” joins values, the source holds several entries; their conditions need not be identical. Equal values may be shown once. Read-outs that look alike come from different tables or passages of the source. Marks after values point to notes of the source that are not given here.

For “1-[3-(4-monomethoxytrityloxy)propyl]-1′-[3-[(2-cyanoethyl)-(N,N-diisopropyl)phosphoramidityl]propyl]-3,3,3′,3′-tetramethylindodicarbocyanine chloride [Cy5, reference compound]”, in series [1] (MeOH), the “fwhm (full width at half maximum height)” value amounted to 29 nm, the “ε (molar extinction coefficient)” value is given as 250,000 M^−1cm^−1, the “λabs (maximum absorption wavelength)” value is 648 nm and the “λflu (maximum fluorescence wavelength)” value is 670 nm. Also, the “Φ (fluorescence quantum yield)” value in series [2] (the value in PBS obtained from Amersham Biosciences) is reported as 0.27^a.

On to `CCCCC(CCCC)Oc1cc(C)c(C2=C3C=c4oc(-c5ccc(OC)cc5)cc4=[N+]3[B-](F)(F)n3c2cc2oc(-c4ccc(OC)cc4)cc23)c(C)c1` [Fluorescent Compound 5], for which the “shift of maximum absorption wavelength to longer wavelength compared with boron dipyrromethene (R1=R3=R5=R7=Me)” value (shortened to “shift … (R1=R3=R5=R7=Me)”) in series [1] is “about 170 nm”. The “shift of maximum absorption wavelength to longer wavelength compared with fluorescent compound 2” value (“shift … with fluorescent compound 2” below) in series [1] is recorded as “about 90 nm”. Moreover, the “fwhm (full width at half maximum height)” value in series [1] (CHCl3) came out at 28 nm; in series [1] (MeOH), 29 nm; in series [1] (THF) it was 27 nm. The figures for the “ε (molar extinction coefficient)” value in series [1] (CHCl3), in series [1] (MeOH) and in series [1] (THF) were 190,000 M^−1cm^−1, 200,000 M^−1cm^−1 and 190,000 M^−1cm^−1, respectively. In addition, the “λabs (maximum absorption wavelength)” value turned out to be 673 nm in series [1] (CHCl3), 664 nm in series [1] (MeOH) and 669 nm in series [1] (THF). Further, the “λflu (maximum fluorescence wavelength)” value in series [1] (CHCl3) came to 685 nm; in series [1] (MeOH), 679 nm; in series [1] (THF), 680 nm. The “Φ (fluorescence quantum yield)” value in series [1] (setting [4]) was 0.68; in series [1] (MeOH, reference N,N′-bis(1-hexylheptyl)-perylene dye (Φ=1.00 in CH2Cl2)), 0.63; in series [1] (THF, reference N,N′-bis(1-hexylheptyl)-perylene dye (Φ=1.00 in CH2Cl2)), 0.67. Also, the “fwhm, summary in text of the values in Table 1” value in series [1] (all solvents of Table 1) was “about 30 nm”.

With `CCCCC(CCCC)Oc1cc(C)c(C2=C3C=c4sc(C)cc4=[N+]3[B-](F)(F)n3c2cc2sc(C)cc23)c(C)c1` [Fluorescent Compound 3], in series [1] (CHCl3), the “fwhm (full width at half maximum height)” value came to 20 nm, the “ε (molar extinction coefficient)” value is 170,000 M^−1cm^−1, the “λabs (maximum absorption wavelength)” value is given as 586 nm and the “λflu (maximum fluorescence wavelength)” value came to 596 nm. Moreover, in series [1] (setting [4]), the “Φ (fluorescence quantum yield)” value came out at 0.39.

In the case of `CCN1C(=CC=Cc2sc3ccccc3[n+]2CC)Sc2ccccc21` [3,3′-diethyl-dithiazylcarbocyanine], the “Φ of reference dye” value in series [2] (in MeOH) was 0.33.

Regarding `COc1ccc(OC)c(-c2cc3c(o2)=CC2=Cc4cc5oc(-c6cc(OC)ccc6OC)cc5n4[B-](F)(F)[N+]=32)c1` [Fluorescent Compound 7], in series [1], the “shift … (R1=R3=R5=R7=Me)” value is on record as “about 170 nm” and the “shift … with fluorescent compound 2” value is reported as “about 90 nm”. In series [1] (CHCl3), the “fwhm (full width at half maximum height)” value was found to be 24 nm; the “λabs (maximum absorption wavelength)” value was 688 nm and 678 nm; the “λflu (maximum fluorescence wavelength)” value came out at 688 nm. Besides, in series [1] (setting [5]), the “Φ (fluorescence quantum yield)” value is recorded as 0.51. Further, in series [1] (MeOH), the “fwhm (full width at half maximum height)” value was determined as 28 nm, the “λabs (maximum absorption wavelength)” value is 662 nm and the “λflu (maximum fluorescence wavelength)” value came to 674 nm. Also, in series [1] (setting [6]), the “Φ (fluorescence quantum yield)” value turned out to be 0.54.

Consider `COc1ccc(C(OCCC[N+]2=C(C=CC=CC=CC=C3N(CCCOP(OCCC#N)N(C(C)C)C(C)C)c4ccccc4C3(C)C)C(C)(C)c3ccccc32)(c2ccccc2)c2ccccc2)cc1.[Cl-]` (centres unmarked) [Cy7, 1-[3-(4-monomethoxytrityloxy)propyl]-1′-[3-[(2-cyanoethyl)-(N,N-diisopropyl)phosphoramidityl]propyl]-3,3,3′,3′-tetramethylindotricarbocyanine chloride], for which, in series [3] (light of daily life, 1 week), the “light fastness (in words)” value was “very poor”. Moreover, the “relative absorbance retained (absorbance before leaving to stand as 100%)” value in series [3] (under the light of daily life without light shading, after 1 week) is reported as at most 10%.

Consider `COc1ccc(-c2cc3c(o2)=CC2=Cc4cc5oc(-c6ccc(OC)cc6)cc5n4[B-](F)(F)[N+]=32)cc1` [Fluorescent Compound 6], for which the “shift … (R1=R3=R5=R7=Me)” value in series [1] is recorded as “about 170 nm”. The “shift … with fluorescent compound 2” value in series [1] was “about 90 nm”. Further, the “fwhm (full width at half maximum height)” value in series [1] (CHCl3) was 24 nm; in series [1] (MeOH), 26 nm; in series [1] (THF), 24 nm. In addition, the “λabs (maximum absorption wavelength)” value in series [1] (CHCl3) is 683 nm and 673 nm; in series [1] (MeOH), 659 nm; in series [1] (THF) it was 665 nm. The figures for the “λflu (maximum fluorescence wavelength)” value in series [1] (CHCl3), in series [1] (MeOH) and in series [1] (THF) were 683 nm, 672 nm and 674 nm, respectively. Further, in series [1] (CHCl3, containing error of 10% (Table 4)), the “ε (molar extinction coefficient)” value is 240,000 M^−1cm^−1. Besides, the “Φ (fluorescence quantum yield)” value in series [1] (setting [5]) was 0.69; in series [1] (setting [6]), 0.58; in series [1] (THF, reference 3,3′-diethyl-dithiazylcarbocyanine, excitation 650 nm, containing error of 10%), 0.63.
